Where two headings read alike, the source gives them in different places.

Assay [1] deals with T1, GST-VH1 (Vaccinia virus, UniProt P07239).
Assay [2] has as its target T1, GST-VH1. The conditions noted are these: pH 7.4.

A word on the kcat/KM: it is the second-order rate constant that governs catalysis at low substrate concentration. Regarding HQYFMpTEYVAT, the kcat/KM at GST-VH1 [1] turned out to be 490 M⁻¹ s⁻¹.

Take HQYFMpTEpYVAT: the kcat/KM on GST-VH1 [1] worked out at 3200 M⁻¹ s⁻¹. The term Km denotes the substrate concentration at which the rate is half of its maximum. In general, kcat refers to the maximal rate divided by the concentration of active sites. Turning to YDEDFpYDYEF [Peptide 26], on GST-VH1 [2], the Km was found to be 11 µM and the kcat was found to be 2.6 s⁻¹. In the case of YNAFAIpTAA [Peptide 2], the “fold decrease of VH1 catalytic activity relative to parent peptide” value on GST-VH1 [1] is on record as ~ 2 fold. Further, at GST-VH1 [1] (pH 7.4), the Km was over 2000 µM and the kcat/KM turned out to be 93 ± 3 M⁻¹ s⁻¹.
